US11254690B2, “PTEFb inhibiting macrocyclic compounds” (BAYER AKTIENGESELLSCHAFT, priority 2017, dated 2022)
Where “and” joins values, the source holds several entries; their conditions need not be identical. Equal entries are not always repeated.

Target: T1, human PTEFb (CDK9/Cyclin T1) (Homo sapiens, UniProt P50750)
T1 construct: purchased ProQinase, Freiburg, Germany
Assay: Surface Plasmon Resonance PTEFb
Assay type: binding
Conditions: SPR, 37° C.; for residence time / Target residence time: 1/koff; for residence time / koff / Target residence time / Dissociation rate constant koff: * = arithmetic means; for residence time: read-out: Target residence time; for Kd: * = arithmetic means of more than one value, read-out: Equilibrium dissociation constant KD; for koff / Dissociation rate constant koff: < = below what is resolvable; for koff: read-out: Dissociation rate constant koff
Excerpt: 8. Surface Plasmon Resonance PTEFb
The term “surface plasmon resonance”, as used herein, refers to an optical phenomenon that allows for the analysis of the reversible associations of biological molecules in real time within a biosensor matrix, for example using the Biacore® system (GE Healthcare Biosciences, Uppsala, Sweden). Biacore® uses the optical properties of surface plasmon resonance (SPR) to detect alterations in the refractive index of a buffer, which changes as molecules in solution interact with the target immobilized on the surface. In brief, proteins are covalently bound to the dextran matrix at a known concentration and a ligand for the protein is injected through the dextran matrix. Near infrared light, directed onto the opposite side of the sensor chip surface is reflected and also induces an evanescent wave in the gold film, which in turn, causes an intensity dip in the reflected light at a particular angle known as the resonance angle. If the refractive index of the sensor chip surface is altered (e.g. by compound binding to the bound protein) a shift occurs in the resonance angle. This angle shift can be measured.
The term “KD”, as used herein, is intended to refer to the equilibrium dissociation constant of a particular compound/target protein complex.
The term “koff”, as used herein, is intended to refer to the off-rate, i.e. the dissociation rate constant of a particular compound/target protein complex.
The term “target residence time”, as used herein, is intended to refer to the inverse of the rate of dissociation rate constant (1/koff) of a particular compound/target protein complex.
The ability of the compounds according to the invention to bind human PTEFb may be determined using surface plasmon resonance (SPR). KD values and koff values may be measured using a Biacore® T200 instrument (GE Healthcare, Uppsala, Sweden).
For SPR measurements, recombinant human PTEFb (CDK9/Cyclin T1 recombinant human active protein kinase purchased from ProQinase, Freiburg, Germany) is immobilized using standard amine coupling (Johnsson B et al, Anal Biochem. 1991 Nov. 1; 198(2):268-77). Briefly, carboxymethylated dextran biosensor chips (CM7, GE Healthcare) are activated with N-ethyl-N′-(3-dimethylaminopropyl)-carbodiimide hydrochloride (EDC) and N-hydroxysuccinimide (NHS) according to the supplier's instructions. Human PTEFb is diluted in 1×HBS-EP+ (GE Healthcare) and injected on the activated chip surface. Subsequently, a 1:1 solution of 1 M ethanolamine-HCl (GE Healthcare) and 1×HBS-EP is injected to block unreacted groups, resulting in approximately 4000 response units (RU) of immobilized protein. A reference surface is generated by treatment with NHS-EDC and ethanolamine-HCl. Compounds are dissolved in 100% dimethylsulfoxide (DMSO, Sigma-Aldrich, Germany) to a concentration of 10 mM and subsequently diluted in running buffer (1×HBS-EP+pH 7.4 [generated from HBS-EP+ Buffer 10× (GE Healthcare): 0.1 M HEPES, 1.5 M NaCl, 30 mM EDTA and 0.5% v/v Surfactant P20], 1% v/v DMSO). For kinetic measurements, serial dilutions of compound (0.78 nM up to 25 nM) are injected over immobilized protein. Binding kinetics is measured at 37° C. with a flow rate of 100 μl/min in running buffer. Compound concentrations are injected for 70 s followed by a dissociation time of 1100 s. The resulting sensorgrams are double-referenced against the reference surface as well as against blank injections.
The double-referenced sensorgrams are fit to a simple reversible Langmuir 1:1 reaction mechanism as implemented in the Biacore® T200 evaluation software 2.0 (GE Healthcare). In cases were full compound dissociation has not occurred at the end of the dissociation phase, the Rmax parameter (response at saturation) is fit as local variable. In all other cases, Rmax is fit as global variable.

T1 sequence (P50750 whole entry): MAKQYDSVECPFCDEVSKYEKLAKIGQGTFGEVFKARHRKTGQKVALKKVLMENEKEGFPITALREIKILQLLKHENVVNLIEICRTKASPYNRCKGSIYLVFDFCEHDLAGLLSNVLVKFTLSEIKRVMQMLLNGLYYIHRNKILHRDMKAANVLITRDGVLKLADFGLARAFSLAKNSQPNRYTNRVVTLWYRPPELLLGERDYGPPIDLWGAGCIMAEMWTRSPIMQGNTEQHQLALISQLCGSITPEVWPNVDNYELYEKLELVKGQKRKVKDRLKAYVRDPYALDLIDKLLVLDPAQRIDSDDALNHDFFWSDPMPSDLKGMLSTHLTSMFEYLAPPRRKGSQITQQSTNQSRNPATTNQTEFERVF
T1 sequence (O60563 whole entry partner): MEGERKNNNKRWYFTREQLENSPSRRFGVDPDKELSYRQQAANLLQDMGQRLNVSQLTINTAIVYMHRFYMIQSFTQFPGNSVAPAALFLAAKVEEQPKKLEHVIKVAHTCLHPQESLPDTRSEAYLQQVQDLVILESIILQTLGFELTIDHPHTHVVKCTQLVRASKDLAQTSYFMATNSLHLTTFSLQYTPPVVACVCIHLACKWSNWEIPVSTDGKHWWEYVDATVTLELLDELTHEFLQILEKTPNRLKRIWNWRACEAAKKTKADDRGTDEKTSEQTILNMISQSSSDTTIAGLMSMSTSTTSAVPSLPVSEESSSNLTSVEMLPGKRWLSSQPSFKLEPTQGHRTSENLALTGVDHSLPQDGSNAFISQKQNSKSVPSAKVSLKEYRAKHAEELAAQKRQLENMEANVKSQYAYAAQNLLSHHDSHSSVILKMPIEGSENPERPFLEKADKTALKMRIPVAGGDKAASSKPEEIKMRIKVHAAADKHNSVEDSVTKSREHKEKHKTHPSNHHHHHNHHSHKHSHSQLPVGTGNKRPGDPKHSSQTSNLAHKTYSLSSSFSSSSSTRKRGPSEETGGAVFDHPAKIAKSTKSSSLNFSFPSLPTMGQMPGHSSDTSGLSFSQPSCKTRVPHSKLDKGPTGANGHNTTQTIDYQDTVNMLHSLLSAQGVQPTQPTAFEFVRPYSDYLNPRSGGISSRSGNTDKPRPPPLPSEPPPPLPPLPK

Row | SMILES | residence time [min] | Kd | koff [s⁻¹] | Target residence time | Dissociation rate constant koff
1 | CS(=N)(=O)Cc1cc2nc(c1)OCCCCOc1cc(ccc1F)-c1cc(ncc1F)N2 (racemic) [Example 2, (rac)-3,20-difluoro-10-[(S-methylsulfonimidoyl)methyl]-13,18-dioxa-5,7,24-triazatetracyclo[17.3.1.1^2,6.1^8,12]pentacosa-1(23),2(25),3,5,8(24),9,11,19,21-nonaene] | 75 | 1.2 nM | 0.00022 | – | –
2 | CS(=N)(=O)Cc1cc2cc(c1)OCCCCOc1cc(ccc1F)-c1nc(ncc1F)N2 (racemic) [Example 4, (rac)-3,20-difluoro-10-[(S-methylsulfonimidoyl)methyl]-13,18-dioxa-5,7,25-triazatetracyclo[17.3.1.1^2,6.1^8,12]pentacosa-1(23),2(25),3,5,8(24),9,11,19,21-nonaene] | 25 | 1.2 nM | 0.00067 | – | –
3 | CC1CCCOc2cc(ccc2F)-c2cc(ncc2F)Nc2cc(CS(C)(=O)=O)cc(n2)O1 (racemic) [Example 28, 3,20-difluoro-14-methyl-10-[(methylsulfonyl)methyl]-13,18-dioxa-5,7,24-triazatetracyclo[17.3.1.1^2,6.1^8,12]pentacosa-1(23),2(25),3,5,8(24),9,11,19,21-nonaene] | – | 0.092 nM and 0.091 nM and 0.12 nM | – | – | –
4 | CC1CCCOc2cc(ccc2F)-c2cc(ncc2F)Nc2cc(CS(C)(=N)=O)cc(n2)O1 (single isomer, unassigned) [Example 16, 3,20-difluoro-14-methyl-10-[(S-methylsulfonimidoyl)methyl]-13,18-dioxa-5,7,24-triazatetracyclo[17.3.1.1^2,6.1^8,12]pentacosa-1(23),2(25),3,5,8(24),9,11,19,21-nonaene] | – | – | – | > 208 min and 131 min | < 8e-05 s⁻¹ and 0.00013 s⁻¹
5 | CC1CCCOc2cc(ccc2F)-c2cc(ncc2F)Nc2cc(CS(C)(=N)=O)cc(n2)O1 (single isomer, unassigned) [Example 17, 3,20-difluoro-14-methyl-10-[(S-methylsulfonimidoyl)methyl]-13,18-dioxa-5,7,24-triazatetracyclo[17.3.1.1^2,6.1^8,12]pentacosa-1(23),2(25),3,5,8(24),9,11,19,21-nonaene] | > 208 | 0.077 nM | < 8e-05 | – | –
6 | CC1CCCCOc2cc(ccc2F)-c2cc(ncc2F)Nc2cc(CS(C)(=N)=O)cc(n2)O1 (single isomer, unassigned) [Example 21, 3,21-difluoro-14-methyl-10-[(S-methylsulfonimidoyl)methyl]-13,19-dioxa-5,7,25-triazatetracyclo[18.3.1.1^2,6.1^8,12]hexacosa-1(24),2(26),3,5,8(25),9,11,20,22-nonaene] | – | 1 nM | – | 10* min | 1.6E−3* 1/s
7 | CC1CCCCOc2cc(ccc2F)-c2cc(ncc2F)Nc2cc(CS(C)(=N)=O)cc(n2)O1 (single isomer, unassigned) [Example 22, 3,21-difluoro-14-methyl-10-[(S-methylsulfonimidoyl)methyl]-13,19-dioxa-5,7,25-triazatetracyclo[18.3.1.1^2,6.1^8,12]hexacosa-1(24),2(26),3,5,8(25),9,11,20,22-nonaene] | – | 0.19 nM | – | 43* min | 3.9E−4* 1/s
